Source: ChEMBL document CHEMBL1201862, “PubChem BioAssay data set” (2004)
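The compound was tested at five concentrations on cells cultured in 96-well plates, with a 48-hour exposure period. GI50: concentration for 50% inhibition of growth.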 Activity calls are given as the source filed them. No stated cut-off is given here; in the data, active = GI50 up to about 1.1 µM and inactive = higher.

Experiments:
Assay in all cases: inhibition of tumour cell growth, NCI panel, 48 h
IGROV-1 = tested on: IGROV-1
HL-60 = tested on: HL-60
ACHN = tested on: ACHN
MDA-N = tested on: MDA-N
OVCAR-5 = tested on: OVCAR-5
RXF 393 = tested on: RXF 393
CCRF-CEM = tested on: CCRF-CEM
HCT-116 = tested on: HCT-116
SNB-19 = tested on: SNB-19
SK-MEL-2 = tested on: SK-MEL-2
A549 = tested on: A549
NCI-H460 = tested on: NCI-H460
CAKI-1 = tested on: CAKI-1
HOP-92 = tested on: HOP-92
SK-MEL-28 = tested on: SK-MEL-28
UO-31 = tested on: UO-31
SF-539 = tested on: SF-539
MOLT-4 = tested on: MOLT-4

Compound	GI50 (IGROV-1)	GI50 (HL-60)	GI50 (ACHN)	GI50 (MDA-N)	GI50 (OVCAR-5)	GI50 (RXF 393)	GI50 (CCRF-CEM)	GI50 (HCT-116)	GI50 (SNB-19)	GI50 (SK-MEL-2)	GI50 (A549)	GI50 (NCI-H460)	GI50 (CAKI-1)	GI50 (HOP-92)	GI50 (SK-MEL-28)	GI50 (UO-31)	GI50 (SF-539)	GI50 (MOLT-4)
O=C(O)c1ccccc1CC1Cc2ccccc2C1	> 100 µM (inactive)	> 100 µM (inactive)	> 100 µM (inactive)	> 100 µM (inactive)	> 100 µM (inactive)	> 100 µM (inactive)	> 100 µM (inactive)	> 100 µM (inactive)	> 100 µM (inactive)	> 100 µM (inactive)	> 100 µM (inactive)	> 100 µM (inactive)	> 100 µM (inactive)	> 100 µM (inactive)	> 100 µM (inactive)	> 100 µM (inactive)	> 100 µM (inactive)	> 100 µM (inactive)
c1ccc2c(c1)Cn1c-2nc2ccccc21	> 100 µM (inactive)	> 100 µM (inactive)	96.6 µM (inactive)	> 100 µM (inactive)	> 100 µM (inactive)	82 µM (inactive)	> 100 µM (inactive)	> 100 µM (inactive)	> 100 µM (inactive)	> 100 µM (inactive)	67.6 µM (inactive)	97.3 µM (inactive)	> 100 µM (inactive)	> 100 µM (inactive)	> 100 µM (inactive)	4.83 µM (inactive)	> 100 µM (inactive)	31.1 µM (inactive)
C=C1C(=O)O[C@@H]2C[C@]3(C)CC[C@]4(C)[C@H](CC[C@@H]5[C@@]6(C)CCC(=O)C(C)(C)[C@@H]6CC[C@]54C)[C@H]3[C@H]12 [OCHRACEOLIDE A]	18.7 µM (inactive)	1.63 µM (inactive)	11.9 µM (inactive)	15.3 µM (inactive)	18.4 µM (inactive)	16.6 µM (inactive)	2.43 µM (inactive)	13.6 µM (inactive)	26.9 µM (inactive)	22.4 µM (inactive)	22.2 µM (inactive)	18.5 µM (inactive)	13.1 µM (inactive)	9.31 µM (inactive)	18.9 µM (inactive)	14.8 µM (inactive)	21.7 µM (inactive)	2.31 µM (inactive)
O=C1c2ccccc2C(=O)c2c1ccc1c2OCO1	> 100 µM (inactive)	> 100 µM (inactive)	> 10 µM (inactive)	> 100 µM (inactive)	> 100 µM (inactive)	> 100 µM (inactive)	> 10 µM (inactive)	> 100 µM (inactive)	> 100 µM (inactive)	> 100 µM (inactive)	> 100 µM (inactive)		> 100 µM (inactive)	> 100 µM (inactive)	> 100 µM (inactive)	> 100 µM (inactive)	> 100 µM (inactive)	> 100 µM (inactive)
O=C1NN(c2ccccc2)C(=O)C2C3c4ccccc4C(c4ccccc43)C12 (stereo not given)	> 100 µM (inactive)	> 10 µM (inactive)	> 100 µM (inactive)	> 100 µM (inactive)	> 10 µM (inactive)	41.1 µM (inactive)	22.5 µM (inactive)	75 µM (inactive)	> 100 µM (inactive)	> 100 µM (inactive)	> 100 µM (inactive)	> 100 µM (inactive)	> 100 µM (inactive)	> 100 µM (inactive)	> 100 µM (inactive)	> 100 µM (inactive)	> 100 µM (inactive)	6.22 µM (inactive)
[B].c1ccc([Si](OCCN2CC2)(c2ccccc2)c2ccccc2)cc1	12.9 µM (inactive)	27.1 µM (inactive)	14.8 µM (inactive)	14.9 µM (inactive)	14.6 µM (inactive)	4.46 µM (inactive)	18.7 µM (inactive)	14.6 µM (inactive)	0.436 µM (active)	0.557 µM (active)	11.9 µM (inactive)	12.5 µM (inactive)	16.3 µM (inactive)	2.36 µM (inactive)		15.2 µM (inactive)	14 µM (inactive)	14.3 µM (inactive)
COC(=O)c1cc2c(cc1CC1Cc3cc4c(cc3C1)CCC4)CCC2	53 µM (inactive)	15.3 µM (inactive)	43.4 µM (inactive)	36.1 µM (inactive)	43.5 µM (inactive)	34 µM (inactive)	16.9 µM (inactive)	35.6 µM (inactive)	93.3 µM (inactive)	24.3 µM (inactive)	60.4 µM (inactive)	51.1 µM (inactive)	90.6 µM (inactive)	27 µM (inactive)	19.5 µM (inactive)	32 µM (inactive)	79.4 µM (inactive)	17.2 µM (inactive)
COc1cc(CSc2ccc(O)cc2)cc(O)c1O	35.3 µM (inactive)	19.6 µM (inactive)	28.1 µM (inactive)	26.7 µM (inactive)	23.4 µM (inactive)	50.6 µM (inactive)	8.36 µM (inactive)	22.1 µM (inactive)	37 µM (inactive)	24.5 µM (inactive)	46.7 µM (inactive)	> 10 µM (inactive)	28 µM (inactive)	22.7 µM (inactive)	46.2 µM (inactive)	27.2 µM (inactive)	29.9 µM (inactive)	25.3 µM (inactive)
Cc1nc2ccc([N+](=O)[O-])cc2c(=O)n1C(=S)Nc1cccc(Cl)c1		14.2 µM (inactive)	17.5 µM (inactive)	16.4 µM (inactive)	28.2 µM (inactive)	13.9 µM (inactive)	12.9 µM (inactive)	16 µM (inactive)	27.8 µM (inactive)	6.18 µM (inactive)	23.2 µM (inactive)	14.9 µM (inactive)	18.1 µM (inactive)	3.5 µM (inactive)	17.6 µM (inactive)	5.24 µM (inactive)	19.5 µM (inactive)	17.9 µM (inactive)
N#CC1=C(N)OC(c2ccc([N+](=O)[O-])cc2)C1(C#N)C#N (stereo not given)	15.6 µM (inactive)	3.46 µM (inactive)	10.2 µM (inactive)	9.18 µM (inactive)	18.7 µM (inactive)	7.23 µM (inactive)	2.57 µM (inactive)	9.77 µM (inactive)	22.4 µM (inactive)	14.6 µM (inactive)	24.4 µM (inactive)		0.785 µM (active)	7.94 µM (inactive)	9.4 µM (inactive)	6.27 µM (inactive)	15.1 µM (inactive)	33.7 µM (inactive)
CCCCCc1c(CCCC)c(=O)[nH]c2cc(CNCC(OC)OC)ccc12	14.9 µM (inactive)	6 µM (inactive)	14.4 µM (inactive)	11.7 µM (inactive)	14.2 µM (inactive)	12 µM (inactive)	4.05 µM (inactive)	7.11 µM (inactive)	12.8 µM (inactive)	11.7 µM (inactive)	12.6 µM (inactive)	10.5 µM (inactive)	10.9 µM (inactive)	7.41 µM (inactive)	5.71 µM (inactive)	13.2 µM (inactive)	14.8 µM (inactive)	5.33 µM (inactive)
COc1ccc(-c2c3c(n(C4OC(CO)C(O)C(O)C4O)c(=S)c2C#N)CC(C)(C)CC3=O)cc1 (stereo not given)	> 100 µM (inactive)	> 100 µM (inactive)	> 100 µM (inactive)	> 100 µM (inactive)	> 100 µM (inactive)	> 100 µM (inactive)	> 100 µM (inactive)	73.3 µM (inactive)	> 100 µM (inactive)	> 100 µM (inactive)	> 100 µM (inactive)	> 100 µM (inactive)	> 100 µM (inactive)	> 100 µM (inactive)	> 100 µM (inactive)	> 100 µM (inactive)	> 100 µM (inactive)	79.4 µM (inactive)
Cc1cccc(/N=N/C(=N\NC(=O)c2cc(Cl)ccc2O)c2ccc(N(CCC#N)CCC#N)cc2C)c1	14.6 µM (inactive)	14.3 µM (inactive)	34.7 µM (inactive)	55.6 µM (inactive)	64.9 µM (inactive)	30.4 µM (inactive)	8.79 µM (inactive)	33 µM (inactive)	35.1 µM (inactive)	29 µM (inactive)	26.5 µM (inactive)	26.1 µM (inactive)	30.6 µM (inactive)	23.8 µM (inactive)	42.9 µM (inactive)	21.9 µM (inactive)	33.3 µM (inactive)	15.9 µM (inactive)
Clc1ccc2c(c1)N(CCCN1CCCC13CCCCC3)c1ccccc1S2	12.3 µM (inactive)	0.152 µM (active)	20.3 µM (inactive)	13.1 µM (inactive)	17.3 µM (inactive)	5.93 µM (inactive)	4.06 µM (inactive)	13.9 µM (inactive)	13.7 µM (inactive)	9.77 µM (inactive)	17.3 µM (inactive)	7.48 µM (inactive)	24.2 µM (inactive)	10.4 µM (inactive)	14.9 µM (inactive)	8.38 µM (inactive)	17.2 µM (inactive)	3.76 µM (inactive)
CCOC(=O)C1C(=O)C=C(c2cc(C)ccc2O)CC1c1cccc(Br)c1 (stereo not given)	12.6 µM (inactive)	20.9 µM (inactive)	18.7 µM (inactive)	4.05 µM (inactive)	25.1 µM (inactive)	14.4 µM (inactive)	19.4 µM (inactive)	18 µM (inactive)	13.4 µM (inactive)	18.5 µM (inactive)	20.1 µM (inactive)	19.5 µM (inactive)	21.9 µM (inactive)	10.4 µM (inactive)		20.9 µM (inactive)	16.2 µM (inactive)	16 µM (inactive)
